For test [1], the system named is MDA-MB-231 cells. The test can be described thus: MDA-MB-231 proliferation assay. It is filed as cell-based. The conditions noted are these: Homo sapiens, 72 hours, YO-PRO-1 readout. The method, then: MDA-MB-231 Proliferation Assay
MDA-MB-231 cells were cultivated in DMEM High Glucose (4.5 g/L) with L-Glutamine (BioConcept, cat. no. 1-26F03-I) supplemented with 1% Na-pyruvate (Sigma, cat. no. S8636), 1% Penicillin-Streptomycin (BioConcept, cat. no. 4-01F00H), and 10% FBS (Sigma, cat. no. F9665) using standard techniques. Cells were seeded in black, clear-bottom 384 well plates for tissue culture (Greiner Bio-One, cat. no. 781091) at a density of 750 cells per well in 20 μL medium and the plates were incubated overnight at 37° C. with 5% CO2 prior to treatment. Experimental compounds were serially diluted in DMSO to 200× the desired final concentrations. The solutions were then diluted 1:40 with culture medium and 5 μL aliquots were mixed into the wells containing the cells. The final concentration of DMSO was 0.5%. The plates were incubated for 72 hours and cell numbers were then measured using YO-PRO™-1 Iodide (ThermoFisher Scientific, cat. no. Y3603) essentially as recommended by the manufacturer. […] The plates were incubated at room temperature in the dark for 30 minutes. Fluorescence intensity signals were then measured on a Synergy 4 reader (BioTek) using 485/20 nm and 530/25 nm filters for the excitation and emission, respectively. Relative proliferation values were calculated by normalizing the raw data using DMSO-treated cells (100% proliferation) and the signals obtained from cells that were evaluated at the time of compound addition (0% proliferation). The concentration-response data were fitted to a sigmoidal 4-parameter logistic model with the maximum constrained to 100%.

Test [2] concerns the target T1, recombinant human CLK3 (Homo sapiens, UniProt P49761).
T1 construct: purchased Thermo Fisher Scientific PV3826
The test can be described thus: CLK3 kinase assay (LANCE Ultra). It is filed as biochemical. The conditions noted are these: 0.5 nM CLK3, 300 μM ATP, 3 hours at 30° C. The method, then:
CLK3 kinase activity was measured using the LANCE® Ultra technology (PerkinElmer) essentially as recommended by the supplier. Briefly, 2.5 μL of test sample at 4× the desired final concentration in 4% DMSO were dispensed into white, low volume, round bottom, 384 well plates (Corning, cat. no. 4512). 5 μL of a mixture containing recombinant human CLK3 (Thermo Fisher Scientific, cat. no. PV3826) and the labeled peptide substrate ULight™-CREBtide (PerkinElmer, cat. no. TRF0107) prepared in 1.33× kinase buffer (Thermo Fisher Scientific, cat. no. PV3189) were then added. Finally, the reactions were started by adding 2.5 μL of a 4× solution of ATP in kinase buffer. The plates were sealed with adhesive foils and incubated for 3 hours at 30° C. in the dark. The final concentrations of CLK3, ULight™—CREBtide, and ATP were 0.5 nM, 50 nM, and 300 μM, respectively. 5 μL of 40 mM EDTA were then added to terminate the reactions. The Eu-anti-phospho-CREB antibody (PerkinElmer, cat. no. TRF0200) diluted in LANCE® detection buffer (PerkinElmer, cat. no. CR97) was then added to a final concentration of 2 nM and the reactions were incubated for 1 hour at room temperature in the dark. The signals were measured using a Synergy 4 reader (BioTek) with a 320/80 nm filter for the excitation and 620/10 nm and 665/8 nm filters for the donor and acceptor emission, respectively. […] IC50 values were calculated by fitting the concentration-response data to a sigmoidal 4-parameter logistic model.
Background: In TR-FRET formats the signal depends on donor and acceptor labels being close together.

The text below walks through data of patent publication US12583825B2, “Benzo[h]quinazolin-4-amine and thieno[3,2-h]quinazolin-4-amine derivatives for the treatment of cancer” (Redona Therapeutics, Inc., priority 2020, dated 2026).

The structures appear in SMILES notation. A value given as a limit tells only on which side of the number the result lay.

T1 sequence (P49761 whole entry): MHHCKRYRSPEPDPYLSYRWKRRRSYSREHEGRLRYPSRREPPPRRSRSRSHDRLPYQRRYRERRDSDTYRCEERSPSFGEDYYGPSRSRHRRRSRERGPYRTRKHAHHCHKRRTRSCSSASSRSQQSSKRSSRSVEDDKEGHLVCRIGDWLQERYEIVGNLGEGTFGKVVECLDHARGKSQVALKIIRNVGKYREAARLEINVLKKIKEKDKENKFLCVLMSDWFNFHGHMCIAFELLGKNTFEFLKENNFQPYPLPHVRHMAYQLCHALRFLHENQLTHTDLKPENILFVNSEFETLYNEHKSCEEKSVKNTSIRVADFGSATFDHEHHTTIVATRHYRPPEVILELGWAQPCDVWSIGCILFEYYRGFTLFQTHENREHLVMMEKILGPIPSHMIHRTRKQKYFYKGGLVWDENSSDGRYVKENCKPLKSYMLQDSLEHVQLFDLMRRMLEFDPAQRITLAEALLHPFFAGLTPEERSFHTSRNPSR

By GI50 is commonly meant the concentration at which growth is held to half of that of the control. Broadly, the IC50 is the concentration at which inhibition is half-maximal. Turning to `CC1(C)/C(=N\O)c2cc(O[C@H]3CC[C@H](N)CC3)ccc2-c2ncnc(N)c21` [Example 46, (6E)-4-amino-8-(trans-4-aminocyclohexoxy)-5,5-dimethyl-benzo[h]quinazolin-6-one oxime], the GI50 in test [1] was found to be 470 nM. The IC50 in test [2] was 12.7 nM.

For the compound `CC1(C)/C(=N/OC[C@@H]2CNC(=O)O2)c2cc(C#N)ccc2-c2ncnc(N)c21` [Example 92, (6Z)-4-amino-5,5-dimethyl-6-[[(5S)-2-oxooxazolidin-5-yl]methoxyimino]benzo[h]quinazoline-8-carbonitrile], in test [1], the GI50 is > 2000 nM. In test [2], the IC50 is 142 nM.

Regarding `COc1ccc2c(c1)/C(=N\O[C@H]1CC[C@@H](N)CC1)C(C)(C)c1c(N)ncnc1-2` [Example 9, (6Z)-6-(cis-4-aminocyclohexoxy)imino-8-methoxy-5,5-dimethyl-benzo[h]quinazolin-4-amine], in test [1], the GI50 came to 1050 nM. In addition, in test [2], the IC50 is 90.2 nM.

Regarding `C[C@@H](O)CO/N=C1\c2cc(O[C@H]3CC[C@H](N)CC3)ccc2-c2ncnc(N)c2C1(C)C` [Example 78, (2R)-1-[(Z)-[4-amino-8-(trans-4-aminocyclohexoxy)-5,5-dimethyl-benzo[h]quinazolin-6-ylidene]amino]oxypropan-2-ol], the GI50 in test [1] is > 2000 nM. Further, the IC50 in test [2] was determined as 66.3 nM.

For the compound `CO/N=C1/c2c(ccc(OC)c2Cl)-c2ncnc(N)c2C1(C)C` [Example 48, (6E)-7-chloro-8-methoxy-6-methoxyimino-5,5-dimethyl-benzo[h]quinazolin-4-amine], the GI50 in test [1] is > 2000 nM. For the same compound, the IC50 in test [2] is 4.9 nM.

Take `COCCO/N=C1\c2cc(N[C@H]3CC[C@@H](N)CC3)ccc2-c2ncnc(N)c2C1(C)C` [Example 96, (6Z)—N8-(cis-4-aminocyclohexyl)-6-(2-methoxyethoxyimino)-5,5-dimethyl-benzo[h]quinazoline-4,8-diamine]: the GI50 in test [1] was found to be 670 nM. Also, the IC50 in test [2] was 43.6 nM.

As to `COc1ccc2c(c1)/C(=N\OC[C@H]1CNC(=O)C1)C(C)(C)c1c(N)ncnc1-2` [Example 73, (4R)-4-[[(Z)-(4-amino-8-methoxy-5,5-dimethyl-benzo[h]quinazolin-6-ylidene)amino]oxymethyl]pyrrolidin-2-one], the GI50 in test [1] was > 2000 nM. The IC50 in test [2] stood at 385 nM.

For the compound `CO/N=C1\c2c(ccc(OC)c2Cl)-c2ncnc(N)c2C1(C)C` [Example 43, (6Z)-7-chloro-8-methoxy-6-methoxyimino-5,5-dimethyl-benzo[h]quinazolin-4-amine], the GI50 in test [1] is > 2000 nM. For the same compound, in test [2], the IC50 amounted to 90.5 nM.

Turning to `CC1(C)/C(=N/OCCCc2cccnc2)c2cc(O[C@H]3CC[C@@H](N)CC3)ccc2-c2ncnc(N)c21` [Example 108, (6Z)-8-(cis-4-aminocyclohexoxy)-5,5-dimethyl-6-[3-(3-pyridyl)propoxyimino]benzo[h]quinazoline-4-amine], in test [1], the GI50 amounted to 942 nM.

As for `COc1ccc2c(c1)/C(=N\OC[C@@H]1CCNC1)C(C)(C)c1c(N)ncnc1-2` [Example 62, (6Z)-8-methoxy-5,5-dimethyl-6-[[(3R)-pyrrolidin-3-yl]methoxyimino]benzo[h]quinazolin-4-amine], in test [2], the IC50 turned out to be 372 nM.

In the case of `CO/N=C1\c2cc(Br)ccc2-c2ncnc(N)c2C1(C)C` [Example 89, (6Z)-8-bromo-6-methoxyimino-5,5-dimethyl-benzo[h]quinazolin-4-amine], the IC50 in test [2] is 98.6 nM.

In the case of `CC1(C)/C(=N/OCCOc2ccccc2)c2cc(O[C@H]3CC[C@@H](N)CC3)ccc2-c2ncnc(N)c21` [Example 107, (6Z)-8-(cis-4-aminocyclohexoxy)-5,5-dimethyl-6-(2-phenoxyethoxyimino)benzo[h]quinazoline-4-amine], the GI50 in test [1] amounted to 319 nM.

On to `CCO/N=C1\c2cc(O[C@H]3CC[C@H](N)CC3)ccc2-c2ncnc(N)c2C1(C)C` [Example 24, (6Z)-8-(trans-4-aminocyclohexoxy)-6-ethoxyimino-5,5-dimethyl-benzo[h]quinazolin-4-amine], for which, in test [1], the GI50 amounted to 743 nM.

For the compound `CO/N=C1\c2cc(O[C@H]3CC[C@H](N)CC3)cc(Cl)c2-c2ncnc(N)c2C1(C)C` [Example 39, (6Z)-8-(trans-4-aminocyclohexoxy)-10-chloro-6-methoxyimino-5,5-dimethyl-benzo[h]quinazolin-4-amine], in test [1], the GI50 was > 2000 nM.

As to `CO/N=C1\c2cc(N(C)C3CCNCC3)ccc2-c2ncnc(N)c2C1(C)C` [Example 69, (6Z)-6-methoxyimino-N8,5,5-trimethyl-N8-(4-piperidyl)benzo[h]quinazoline-4,8-diamine], the GI50 in test [1] was > 2000 nM.

Consider `CC1(C)/C(=N/OCCOC(F)(F)F)c2cc(O[C@H]3CC[C@@H](N)CC3)ccc2-c2ncnc(N)c21` [Example 105, (6Z)-8-(cis-4-aminocyclohexoxy)-5,5-dimethyl-6-[2-(trifluoromethoxy)ethoxyimino]benzo[h]quinazoline-4-amine], for which, in test [1], the GI50 turned out to be 82 nM.

For the compound `C=CCO/N=C1\c2cc(O[C@H]3CC[C@H](N)CC3)ccc2-c2ncnc(N)c2C1(C)C` [Example 64, (6Z)-6-allyloxyimino-8-(trans-4-aminocyclohexoxy)-5,5-dimethyl-benzo[h]quinazolin-4-amine], the GI50 in test [1] was > 2000 nM.

In the case of `CCN(CC)CCCO/N=C1\c2cc(O[C@H]3CC[C@H](N)CC3)ccc2-c2ncnc(N)c2C1(C)C` [Example 17, (6Z)-8-(trans-4-aminocyclohexoxy)-6-[3-(diethylamino)propoxyimino]-5,5-dimethyl-benzo[h]quinazolin-4-amine], in test [2], the IC50 was 410 nM.

On to `CC(C)O/N=C1\c2cc(O[C@H]3CC[C@H](N)CC3)ccc2-c2ncnc(N)c2C1(C)C` [Example 67, (6Z)-8-(trans-4-aminocyclohexoxy)-6-isopropoxyimino-5,5-dimethyl-benzo[h]quinazolin-4-amine], for which, in test [1], the GI50 was > 2000 nM.

As for `COc1ccc2c(c1)/C(=N/OC[C@@H]1CCNC1)C(C)(C)c1c(N)ncnc1-2` [Example 63, (6E)-8-methoxy-5,5-dimethyl-6-[[(3R)-pyrrolidin-3-yl]methoxyimino]benzo[h]quinazolin-4-amine], in test [2], the IC50 is 313 nM.

Regarding `COc1ccc2c(c1)/C(=N\OC[C@H]1CC[C@H](N)CC1)C(C)(C)c1c(N)ncnc1-2` [Example 11, (6Z)-6-[(trans-4-aminocyclohexyl)methoxyimino]-8-methoxy-5,5-dimethyl-benzo[h]quinazolin-4-amine], in test [2], the IC50 is 437 nM.

For the compound `CO/N=C1\c2cc(O[C@H]3CC[C@@H](N)CC3)ccc2-c2ncnc(N)c2C1(C)C` [Example 54, (6Z)-8-(cis-4-aminocyclohexoxy)-6-methoxyimino-5,5-dimethyl-benzo[h]quinazolin-4-amine], the half-inhibitory concentration (IC50) in test [2] is 1.9 nM.

On to `COc1ccc2c(c1)/C(=N\OCC(N)=O)C(C)(C)c1c(N)ncnc1-2` [Example 7, 2-[(Z)-(4-amino-8-methoxy-5,5-dimethyl-benzo[h]quinazolin-6-ylidene)amino]oxyacetamide], for which the IC50 in test [2] came out at 115 nM.

In the case of `COc1ccc2c(c1)/C(=N\OCC(=O)O)C(C)(C)c1c(N)ncnc1-2` [Example 5, 2-[(Z)-(4-amino-8-methoxy-5,5-dimethyl-benzo[h]quinazolin-6-ylidene)amino]oxyacetic acid], the IC50 in test [2] is 227 nM.

On to `COc1ccc2c(c1)/C(=N\OC[C@H]1CCN(C)C1)C(C)(C)c1c(N)ncnc1-2` [Example 71, (6Z)-8-methoxy-5,5-dimethyl-6-[[(3S)-1-methylpyrrolidin-3-yl]methoxyimino]benzo[h]quinazolin-4-amine], for which the IC50 in test [2] was determined as 173 nM.

For `CO/N=C1\c2cc(OC)c(N)cc2-c2ncnc(N)c2C1(C)C` [Example 42, (6Z)-8-methoxy-6-methoxyimino-5,5-dimethyl-benzo[h]quinazoline-4,9-diamine], in test [1], the GI50 was > 2000 nM.
